One test has as its target T1, human 11β-HSD1 (Homo sapiens, UniProt P28845).
T1 construct: 100 ug/ml human/mouse liver microsomes; from tissue; host or cells: human liver microsomes
Kind of test: Enzyme activity analysis on human 11β-HSD1 (HTRF cortisol, liver microsomes). In kind it is biochemical. The following applies: first value of cell. A digest of the protocol: (§1)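 Cortisol generated by mouse or human liver microsome 11β-HSD1 during 2 h at 37° C., measured by HTRF competition (cryptate anti-cortisol antibody, d2-cortisol, 2 h room temperature) against a cortisol standard curve. IC50 from percent inhibition versus no-compound control.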
For orientation: TR-FRET usually uses a lanthanide donor and a delayed reading to cut background.

A further test deals with T2, mouse 11β-HSD1 (Mus musculus, UniProt P50172).
T2 construct: 100 ug/ml human/mouse liver microsomes; from tissue; host or cells: mouse liver microsomes
Nature of the test: Enzyme activity analysis on mouse 11β-HSD1 (HTRF cortisol, liver microsomes). In kind it is biochemical. The following applies: second value of cell. An outline of the steps: as §1

What is called IC50 is the midpoint of a concentration-inhibition curve. Low values mean greater potency in that assay, high ones weaker potency in that assay.

T2 sequence (P50172 whole entry): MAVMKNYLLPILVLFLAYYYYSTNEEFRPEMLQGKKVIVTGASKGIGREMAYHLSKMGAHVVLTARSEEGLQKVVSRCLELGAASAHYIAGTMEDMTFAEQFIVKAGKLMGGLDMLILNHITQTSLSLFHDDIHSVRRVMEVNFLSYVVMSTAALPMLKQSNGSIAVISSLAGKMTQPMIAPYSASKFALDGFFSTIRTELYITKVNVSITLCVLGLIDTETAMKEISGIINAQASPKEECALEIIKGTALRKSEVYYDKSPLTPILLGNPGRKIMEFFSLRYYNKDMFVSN
T1 sequence (P28845 whole entry): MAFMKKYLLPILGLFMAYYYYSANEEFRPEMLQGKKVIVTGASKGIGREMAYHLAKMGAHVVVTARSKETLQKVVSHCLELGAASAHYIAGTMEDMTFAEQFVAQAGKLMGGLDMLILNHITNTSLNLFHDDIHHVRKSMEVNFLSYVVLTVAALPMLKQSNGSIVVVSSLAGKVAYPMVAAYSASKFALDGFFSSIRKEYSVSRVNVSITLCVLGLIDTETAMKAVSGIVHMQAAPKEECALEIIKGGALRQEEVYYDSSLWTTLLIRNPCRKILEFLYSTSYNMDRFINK

On to `Cc1c(Cl)cccc1S(=O)(=O)N(C)C(C)(C)C(=O)NC1C2CC3CC(C2)CC1C3` (stereo not shown) [compound 200, N-(adamantane-2-yl)-2-(3-chloro-2-methyl-N-methylphenylsulfonamido)-2-methylpropanamide], for which the 50% inhibitory concentration (IC50) on human 11β-HSD1 was found to be 0.023 µM; against mouse 11β-HSD1, 0.143 µM.
Turning to `CC(C)(NS(=O)(=O)c1cccc(Cl)c1F)C(=O)NC1C2CC3CC1CC(C(N)=O)(C3)C2` (stereo not shown) [compound 102, N-4-(2-(2-fluoro-3-chlorophenylsulfonamido)-2-methylpropanamido)adamantane-1-carboxyamide], the IC50 on human 11β-HSD1 worked out at 0.02 µM; against mouse 11β-HSD1, 0.037 µM.
On the same counts, the results for `NC(=O)C12CC3CC(C1)C(NC(=O)C1(NS(=O)(=O)c4ccccc4)CCCC1)C(C3)C2` (stereo not shown) [compound 171, N-4-(1-(phenylsulfonamido)cyclopentanecarboxyamido)adamantane-1-carboxyamide] are 0.038 µM and 0.12 µM.
For the compound `NC(=O)C12CC3CC(C1)C(NC(=O)C1(NS(=O)(=O)c4ccc(Cl)cc4Cl)CCC1)C(C3)C2` (stereo not shown) [compound 153, N-4-(1-(2,4-dichlorophenylsulfonamido)cyclobutanecarboxyamido)adamantane-1-carboxyamide], the IC50 against human 11β-HSD1 worked out at 0.058 µM; on mouse 11β-HSD1, 0.459 µM.
For `CN(C(C)(C)C(=O)NC1C2CC3CC(C2)CC1C3)S(=O)(=O)c1ccccc1C(F)(F)F` (stereo not shown) [compound 201, N-(adamantane-2-yl)-2-(2-trifluoromethyl-N-methylphenylsulfonamido)-2-methylpropan amide], the IC50 at human 11β-HSD1 was determined as 0.012 µM; on mouse 11β-HSD1, 0.088 µM.
On the same counts, the results for `Cc1ccc(S(=O)(=O)NC(C)(C)C(=O)NC2C3CC4CC(C3)CC2C4)cc1Cl` (stereo not shown) [compound 62, N-(adamantane-2-yl)-2-methyl-2-(4-methyl-3-chlorophenylsulfonamido)propanamide] are 0.215 µM and 0.686 µM.
On the same counts, the results for `NC(=O)C12CC3CC(C1)C(NC(=O)C1(NS(=O)(=O)c4ccccc4Cl)CCCC1)C(C3)C2` (stereo not shown) [compound 170, N-4-(1-(2-chlorophenylsulfonamido)cyclopentanecarboxyamido)adamantane-1-carboxyamide] are 0.011 µM and 0.012 µM.
On the same counts, the results for `CC(C)(NS(=O)(=O)c1cccc(Br)c1)C(=O)NC1C2CC3CC(C2)CC1C3` (stereo not shown) [compound 64, N-(adamantane-2-yl)-2-methyl-2-(3-bromophenylsulfonamido)propanamide] are 0.433 µM and 1.02 µM.
Consider `CCN(C(C)(C)C(=O)NC1C2CC3CC1CC(C(N)=O)(C3)C2)S(=O)(=O)c1ccccc1Cl` (stereo not shown) [compound 217], for which the IC50 stood at 0.004 µM at human 11β-HSD1 and 0.098 µM at mouse 11β-HSD1.
For `NC(=O)C12CC3CC(C1)C(NC(=O)C1(NS(=O)(=O)c4ccccc4N)CCC1)C(C3)C2` (stereo not shown) [compound 221, N-4-(1-(2-aminophenylsulfonamido)cyclobutanecarboxyamido)adamantane-1-carboxyamide], the concentration for half-maximal inhibition (IC50) on human 11β-HSD1 was 0.079 µM; at mouse 11β-HSD1 it was 0.151 µM.
On the same counts, the results for `CC(C)(NS(=O)(=O)c1ccccc1Cl)C(=O)NC1C2CC3CC1CC(C(=O)NCCO)(C3)C2` (stereo not shown) [compound 231, 4-[2-(2-chloro-benzenesulfonylamino)-2-methyl-propionylamino]-adamantane-1-carboxylic acid ethanolamide] are > 2.5 µM and > 2.5 µM.
On the same counts, the results for `COc1ccc(S(=O)(=O)NC2(C(=O)NC3C4CC5CC3CC(C(N)=O)(C5)C4)CCC2)cc1F` (stereo not shown) [compound 154, N-4-(1-(3-fluoro-4-methoxyphenylsulfonamido)cyclobutanecarboxyamido)adamantane-1-carboxyamide] are 1.63 µM and 0.565 µM.
On the same counts, the results for `CC(C)(NS(=O)(=O)c1ccccc1Cl)C(=O)NC1C2CC3CC(C2)CC1C3` (stereo not shown) [compound 6, N-(adamantane-2-yl)-2-methyl-2-(2-chlorophenylsulfonamido)propanamide] are 0.02 µM and 0.04 µM.
Take `CN(C(C)(C)C(=O)NC1C2CC3CC1CC(O)(C3)C2)S(=O)(=O)c1ccccc1F` (stereo not shown) [compound 202, N-(5-hydroxyadamantane-2-yl)-2-(2-fluoro-N-methylphenylsulfonamido)-2-methylpropanamide]: the figures for the IC50 at human 11β-HSD1 and at mouse 11β-HSD1 were 0.011 µM and 0.208 µM, respectively.
For `CN(C1(C(=O)NC2C3CC4CC2CC(C(N)=O)(C4)C3)CCC1)S(=O)(=O)c1ccccc1N` (stereo not shown) [compound 222, N-4-(1-(N-methyl-2-aminophenylsulfonamido)cyclobutanecarboxyamido)adamantane-1-carboxyamide], in that order: 0.005 µM and 0.004 µM.
On the same counts, the results for `Cc1c(Cl)cccc1S(=O)(=O)N(C)C(C)(C)C(=O)NC1C2CC3CC1CC(C(N)=O)(C3)C2` (stereo not shown) [compound 191, N-4-(2-(2-methyl-3-chloro-N-methylphenylsulfonamido)-2-methylpropanamido)adamantane-1-carboxyamide] are 0.009 µM and 0.006 µM.
For `Cc1c(Cl)cccc1S(=O)(=O)NC1(C(=O)NC2C3CC4CC2CC(C(N)=O)(C4)C3)CCCC1` (stereo not shown) [compound 167, N-4-(1-(3-chloro-2-methylphenylsulfonamido)cyclopentanecarboxyamido)adamantane-1-carboxyamide], in that order: 0.008 µM and 0.016 µM.
As to `CC(C)(NS(=O)(=O)c1cc(F)c(F)c(F)c1)C(=O)NC1C2CC3CC1CC(C(N)=O)(C3)C2` (stereo not shown) [compound 118, N-4-(2-(3,4,5-trifluorophenylsulfonamido)-2-methylpropanamido)adamantane-1-carboxy amide], the results for the half-maximal inhibitory concentration (IC50) at human 11β-HSD1 and on mouse 11β-HSD1 were 0.116 µM and 0.224 µM, respectively.
On the same counts, the results for `CC(C)(NS(=O)(=O)c1ccc(Cl)cc1Cl)C(=O)NC1C2CC3CC1CC(C(N)=O)(C3)C2` (stereo not shown) [compound 88, N-4-(2-(2,4-dichlorophenylsulfonamido)-2-methylpropanamido)adamantane-1-carboxyamide] are 0.014 µM and 0.056 µM.
On the same counts, the results for `CC(C)(NS(=O)(=O)c1ccc(F)cc1Cl)C(=O)NC1C2CC3CC1CC(O)(C3)C2` (stereo not shown) [compound 80, N-(5-hydroxyadamantane-2-yl)-2-methyl-2-(4-fluoro-2-chlorophenylsulfonamido)propan amide] are 0.072 µM and 0.213 µM.
Regarding `CC(C)(NS(=O)(=O)c1ccccc1Br)C(=O)NC1C2CC3CC1CC(C(=O)NC1CC1)(C3)C2` (stereo not shown) [compound 229, 4-[2-(2-bromo-benzenesulfonylamino)-2-methyl-propionylamino]-adamantane-1-carboxylic acid cyclopropylamide], the IC50 against human 11β-HSD1 and against mouse 11β-HSD1 was > 2.5 µM throughout.
Turning to `COc1ccc(S(=O)(=O)NC(C)(C)C(=O)NC2C3CC4CC(C3)CC2C4)c(OC)c1` (stereo not shown) [compound 47, N-(adamantane-2-yl)-2-methyl-2-(2,4-dimethoxyphenylsulfonamido)propanamide], the 50% inhibitory concentration (IC50) against human 11β-HSD1 was found to be 0.082 µM; at mouse 11β-HSD1, 1.92 µM.
For `CC(C)(NS(=O)(=O)c1ccc(F)c(F)c1F)C(=O)NC1C2CC3CC1CC(C(N)=O)(C3)C2` (stereo not shown) [compound 116, N-4-(2-(2,3,4-trifluorophenylsulfonamido)-2-methylpropanamido)adamantane-1-carboxy amide], in that order: 0.035 µM and 0.122 µM.
